Source: ChEMBL document CHEMBL1629559, “Real-time PCR detection of gyrA and parC mutations in Streptococcus pneumoniae” (2008)
Converted amounts (≈) assume the structure as drawn.

Tests used:
[1] = system: Streptococcus pneumoniae; assay: Antibacterial activity against Streptococcus pneumoniae U2A1053 harboring parC Ser79Phe mutant gene by agar disk diffusion method; type: functional
[2] = system: Streptococcus pneumoniae; assay: Antibacterial activity against Streptococcus pneumoniae U2A1686 harboring gyrA Glu85Lys mutant gene by agar disk diffusion method; type: functional
[3] = system: Streptococcus pneumoniae; assay: Antibacterial activity against Streptococcus pneumoniae U2A1411 harboring parC Asp83Gly mutant gene by agar dilution method; type: functional
[4] = system: Streptococcus pneumoniae; assay: Antibacterial activity against Streptococcus pneumoniae R6 Tr10 harboring gyrA Ser81Tyr parC Ser79Tyr mutant gene by agar dilution method; type: functional
[5] = system: Streptococcus pneumoniae; assay: Antibacterial activity against Streptococcus pneumoniae U2A1051 harboring gyrA Ser81Tyr mutant gene by agar dilution method; type: functional
[6] = system: Streptococcus pneumoniae; assay: Antibacterial activity against Streptococcus pneumoniae R6 Tr6 harboring gyrA Ser81Phe mutant gene by agar disk diffusion method; type: functional
[7] = system: Streptococcus pneumoniae; assay: Antibacterial activity against Streptococcus pneumoniae U2A1414 harboring gyrA Glu85Lys parC Ser79Phe mutant gene by agar disk diffusion method; type: functional
[8] = system: Streptococcus pneumoniae; assay: Antibacterial activity against Streptococcus pneumoniae CP1000 by agar dilution method; type: functional
[9] = system: Streptococcus pneumoniae; assay: Antibacterial activity against Streptococcus pneumoniae R6 Tr6 harboring gyrA Ser81Phe mutant gene by agar dilution method; type: functional
[10] = system: Streptococcus pneumoniae; assay: Antibacterial activity against Streptococcus pneumoniae R6 by agar disk diffusion method; type: functional
[11] = system: Streptococcus pneumoniae; assay: Antibacterial activity against Streptococcus pneumoniae U2A1693 harboring parC Asp83Asn mutant gene by agar dilution method; type: functional
[12] = system: Streptococcus pneumoniae; assay: Antibacterial activity against Streptococcus pneumoniae U2A1056 harboring gyrA Ser81Tyr parC Asp83His mutant gene by agar dilution method; type: functional
[13] = system: Streptococcus pneumoniae; assay: Antibacterial activity against Streptococcus pneumoniae U2A1053 harboring parC Ser79Phe mutant gene by agar dilution method; type: functional
[14] = system: Streptococcus pneumoniae; assay: Antibacterial activity against Streptococcus pneumoniae R6 by agar dilution method; type: functional
[15] = system: Streptococcus pneumoniae; assay: Antibacterial activity against Streptococcus pneumoniae R6 Tr1 harboring parC Ser79Tyr mutant gene by agar dilution method; type: functional
[16] = system: Streptococcus pneumoniae; assay: Antibacterial activity against Streptococcus pneumoniae U2A1050 harboring gyrA Ser81Phe mutant gene by agar dilution method; type: functional
[17] = system: Streptococcus pneumoniae; assay: Antibacterial activity against Streptococcus pneumoniae U2A1051 harboring gyrA Ser81Tyr mutant gene by agar disk diffusion method; type: functional
[18] = system: Streptococcus pneumoniae; assay: Antibacterial activity against Streptococcus pneumoniae CIP104485 by agar dilution method; type: functional; details: CIP1044
[19] = system: Streptococcus pneumoniae; assay: Antibacterial activity against Streptococcus pneumoniae U2A1056 harboring gyrA Ser81Tyr parC Asp83His mutant gene by agar disk diffusion method; type: functional
[20] = system: Streptococcus pneumoniae; assay: Antibacterial activity against Streptococcus pneumoniae U2A1060 harboring gyrA Ser81Phe parC Asp83His mutant gene by agar disk diffusion method; type: functional
[21] = system: Streptococcus pneumoniae; assay: Antibacterial activity against Streptococcus pneumoniae U2A1266 harboring gyrA Ser81Cys mutant gene by agar disk diffusion method; type: functional
[22] = system: Streptococcus pneumoniae; assay: Antibacterial activity against Streptococcus pneumoniae U2A1050 harboring gyrA Ser81Phe mutant gene by agar disk diffusion method; type: functional
[23] = system: Streptococcus pneumoniae; assay: Antibacterial activity against Streptococcus pneumoniae H548 clinical isolate harboring gyrA Ser81Phe mutant gene by agar dilution method; type: functional
[24] = system: Streptococcus pneumoniae; assay: Antibacterial activity against Streptococcus pneumoniae H548 clinical isolate harboring gyrA Ser81Phe mutant gene by agar disk diffusion method; type: functional
[25] = system: Streptococcus pneumoniae; assay: Antibacterial activity against Streptococcus pneumoniae U2A1414 harboring gyrA Glu85Lys parC Ser79Phe mutant gene by agar dilution method; type: functional
[26] = system: Streptococcus pneumoniae; assay: Antibacterial activity against Streptococcus pneumoniae U2A1693 harboring parC Asp83Asn mutant gene by agar disk diffusion method; type: functional
[27] = system: Streptococcus pneumoniae; assay: Antibacterial activity against Streptococcus pneumoniae CIP104485 by agar disk diffusion method; type: functional, CIP1044
[28] = system: Streptococcus pneumoniae; assay: Antibacterial activity against Streptococcus pneumoniae U2A1411 harboring parC Asp83Gly mutant gene by agar disk diffusion method; type: functional
[29] = system: Streptococcus pneumoniae; assay: Antibacterial activity against Streptococcus pneumoniae U2A1681 harboring parC Ser79Tyr Asp83Ala mutant gene by agar dilution method; type: functional
[30] = system: Streptococcus pneumoniae; assay: Antibacterial activity against Streptococcus pneumoniae U2A1686 harboring gyrA Glu85Lys mutant gene by agar dilution method; type: functional
[31] = system: Streptococcus pneumoniae; assay: Antibacterial activity against Streptococcus pneumoniae CP1000 by agar disk diffusion method; type: functional
[32] = system: Streptococcus pneumoniae; assay: Antibacterial activity against Streptococcus pneumoniae U2A1266 harboring gyrA Ser81Cys mutant gene by agar dilution method; type: functional
[33] = system: Streptococcus pneumoniae; assay: Antibacterial activity against Streptococcus pneumoniae U2A1681 harboring parC Ser79Tyr Asp83Ala mutant gene by agar disk diffusion method; type: functional
[34] = system: Streptococcus pneumoniae; assay: Antibacterial activity against Streptococcus pneumoniae U2A1413 harboring parC Ser79Tyr mutant gene by agar dilution method; type: functional
[35] = system: Streptococcus pneumoniae; assay: Antibacterial activity against Streptococcus pneumoniae R6 Tr1 harboring parC Ser79Tyr mutant gene by agar disk diffusion method; type: functional
[36] = system: Streptococcus pneumoniae; assay: Antibacterial activity against Streptococcus pneumoniae U2A1060 harboring gyrA Ser81Phe parC Asp83His mutant gene by agar dilution method; type: functional
[37] = system: Streptococcus pneumoniae; assay: Antibacterial activity against Streptococcus pneumoniae R6 Tr10 harboring gyrA Ser81Tyr parC Ser79Tyr mutant gene by agar disk diffusion method; type: functional
[38] = system: Streptococcus pneumoniae; assay: Antibacterial activity against Streptococcus pneumoniae U2A1413 harboring parC Ser79Tyr mutant gene by agar disk diffusion method; type: functional

CCn1cc(C(=O)O)c(=O)c2cc(F)c(N3CCNCC3)cc21 [NORFLOXACIN]
diameter of the inhibition zone (DIZ) [1]: 6 mm
diameter of the inhibition zone (DIZ) [2]: 22 mm
MIC [3]: 256 mg/L (≈ 802 µM)
MIC [4]: 128 mg/L (≈ 401 µM)
MIC [5]: 8 mg/L (≈ 25.1 µM)
diameter of the inhibition zone (DIZ) [6]: 18 mm
diameter of the inhibition zone (DIZ) [7]: 6 mm
MIC [8]: 4 mg/L (≈ 12.5 µM)
MIC [9]: 4 mg/L (≈ 12.5 µM)
diameter of the inhibition zone (DIZ) [10]: 19 mm
MIC [11]: 64 mg/L (≈ 200 µM)
MIC [12]: 128 mg/L (≈ 401 µM)
MIC [13]: 64 mg/L (≈ 200 µM)
MIC [14]: 4 mg/L (≈ 12.5 µM)
MIC [15]: 64 mg/L (≈ 200 µM)
MIC [16]: 8 mg/L (≈ 25.1 µM)
diameter of the inhibition zone (DIZ) [17]: 18 mm
MIC [18]: 4 mg/L (≈ 12.5 µM)
diameter of the inhibition zone (DIZ) [19]: 6 mm
diameter of the inhibition zone (DIZ) [20]: 6 mm
diameter of the inhibition zone (DIZ) [21]: 13 mm
diameter of the inhibition zone (DIZ) [22]: 16 mm
MIC [23]: 32 mg/L (≈ 100 µM)
diameter of the inhibition zone (DIZ) [24]: 6 mm
MIC [25]: 256 mg/L (≈ 802 µM)
diameter of the inhibition zone (DIZ) [26]: 6 mm
diameter of the inhibition zone (DIZ) [27]: 19 mm
diameter of the inhibition zone (DIZ) [28]: 6 mm
MIC [29]: 256 mg/L (≈ 802 µM)
MIC [30]: 4 mg/L (≈ 12.5 µM)
diameter of the inhibition zone (DIZ) [31]: 21 mm
MIC [32]: 8 mg/L (≈ 25.1 µM)
diameter of the inhibition zone (DIZ) [33]: 6 mm
MIC [34]: 32 mg/L (≈ 100 µM)
diameter of the inhibition zone (DIZ) [35]: 6 mm
MIC [36]: 256 mg/L (≈ 802 µM)
diameter of the inhibition zone (DIZ) [37]: 6 mm
diameter of the inhibition zone (DIZ) [38]: 6 mm

CCn1cc(C(=O)O)c(=O)c2cc(F)c(N3CCN(C)CC3)cc21 [PEFLOXACIN]
diameter of the inhibition zone (DIZ) [1]: 13 mm
diameter of the inhibition zone (DIZ) [2]: 23 mm
MIC [3]: 64 mg/L (≈ 192 µM)
MIC [4]: > 128 mg/L
MIC [5]: 16 mg/L (≈ 48 µM)
diameter of the inhibition zone (DIZ) [6]: 19 mm
MIC [8]: 4 mg/L (≈ 12 µM)
MIC [9]: 8 mg/L (≈ 24 µM)
diameter of the inhibition zone (DIZ) [10]: 17 mm
MIC [11]: 64 mg/L (≈ 192 µM)
MIC [12]: 64 mg/L (≈ 192 µM)
MIC [13]: 128 mg/L (≈ 384 µM)
MIC [14]: 8 mg/L (≈ 24 µM)
MIC [15]: 64 mg/L (≈ 192 µM)
MIC [16]: 16 mg/L (≈ 48 µM)
diameter of the inhibition zone (DIZ) [17]: 20 mm
MIC [18]: 8 mg/L (≈ 24 µM)
diameter of the inhibition zone (DIZ) [21]: 17 mm
diameter of the inhibition zone (DIZ) [22]: 18 mm
MIC [25]: > 128 mg/L
diameter of the inhibition zone (DIZ) [27]: 18 mm
MIC [29]: > 128 mg/L
MIC [30]: 8 mg/L (≈ 24 µM)
diameter of the inhibition zone (DIZ) [31]: 21 mm
MIC [32]: 16 mg/L (≈ 48 µM)
MIC [34]: 32 mg/L (≈ 96 µM)
MIC [36]: 128 mg/L (≈ 384 µM)
diameter of the inhibition zone (DIZ) [38]: 13 mm
